In patent publication US11638427B2, “Methods and compositions for altering secondary metabolites in plants” (Impello Biosciences, Inc, priority 2020, dated 2023):

System: hemp varietal 'Bialobreszkie'
Assay: MeJA foliar spray on fiber hemp, non-targeted metabolomic analysis (UPLC-MS, GC-MS)
Assay type: in vivo, Cannabis spp.
Description: The efficacy and effectiveness of an eliciting composition and methods of use to alter secondary metabolite production were tested in a controlled environment with a commercial certified hemp varietal ‘Bialobreszkie’ (Bija Hemp, Denver, Colo., USA). […] This is in comparison with high metabolite-producing hemp varieties that typically yield greater than 10% by weight total cannabinoids.
A non-targeted semi-quantitative metabolomic analysis was conducted to provide relative values for each detected analyte (i.e., compound) rather than absolute quantification, but with much greater detection limits than typical quantitative analysis provides. Additionally, the non-targeted nature allows essentially every compound that is present in the sample to be recorded and scored relative, providing a picture of the effect that each treatment has on the entire metabolome of the plant rather than only a snapshot of a few metabolites.
One hundred and forty-four (144) ‘Bialobreszkie’ variety hemp seeds were surface sterilized in a 2% NaOCI solution for 5 minutes and primed for 12 hours in a 1:30 aqueous solution of TRIBUS® Original (a commercial plant growth promoting bacterial consortia) contained in a 50 mL centrifuge tube and placed on an orbital shaker at 80 rpm, then hand sewn into two 72-cell trays filled with commercial coco coir (Canna Gardening, NL). Of the 144 seeds, 112 germinated well and were selected for use in the trial. After two weeks of development in seedling trays, all 112 plants were transplanted into 4” square plastic pots filled with pure coco coir media and watered-in with a 4-20-39 fertilizer supplemented with calcium nitrate, magnesium sulfate, and TRIBUS® beneficial bacteria at a standardized rate. At the time of transplant, all plants were transitioned into the flowering stage by manipulating the photoperiod to a 12-hour light/12-hour dark schedule per 24-hour day.
Plants were transplanted successively without regard to their size or physical attributes on Apr. 20, 2019. The square pots were arranged in an […] grid on a 4′×8′ black plastic bench under two×1000-watt DE-HPS lamps (Gavita International BV). Each pot was numbered in numerical order, row by row. After all plants/pots were labelled, a research randomizer tool (randomizer.org) was used to randomly generate 8 groups with 14 unique numbers in each group, ranging from 1-112.
Treatment groups differed only in the frequency and timing of applications. Chemical composition of the elicitor formula remained identical between all treatment groups and consisted of a 7.5 mM methyljasmonate (MeJA, technical grade, TCI America) active ingredient applied in an aqueous spray consisting of reverse-osmosis purified water, supplemented only with 0.1% v/v polysorbate-20 (TWEEN®-20, reagent grade, VWR) as an emulsifier to support oil-in-water stability. […] Treatment groups were defined as follows: […]
All plants receiving treatments were sprayed-to-drip with each application to ensure sufficient coverage. Treatments were made to all treatment plants during daylight hours but out of direct light. Plants were temporarily removed from the growing bench for treatment applications in order to prevent overspray of the treatment onto other plants in the experiment. In such instances, plants were returned to the growing bench immediately after the foliage had dried. Plants were cultivated under identical and typical growing conditions for 47 days, then whole plants were harvested successively and within one hour of each other, labeled with their corresponding plant number, and hung upside down in a well-ventilated room and allowed to dry. Loss of samples occurred either from plants dying during the experiment or insufficient flower set. All other plants in the experiment were approximately the same size and had similar numbers and size of flowers.
Each of the 8 groups (7 treatment and 1 control) began the trial with 14 plants. 109 of 112 samples were run in the assay. […]

[1] = 7.5 mM foliar spray, of the 597

CC/C=C\C[C@H]1C(=O)CC[C@@H]1CC(=O)OC [MeJA, Methyl Jasmonate]
non-volatile hemp metabolome compared to the Control group (UPLC-MS) (7.5 mM applied every 7, 14 or 28 days, or only once 72 hours prior to harvest): substantially altered
endogenous levels of jasmonate derivatives (7.5 mM exogenous foliar application): increase endogenous levels of numerous jasmonate derivaties
significantly altered compounds not annotated [1]: 466
significantly altered compounds putatively of superclass Alkaloids and derivatives [1]: 5
significantly altered compounds putatively of superclass Benzenoids [1]: 5
significantly altered compounds putatively of superclass Lipid or Lipid like [1]: 78
significantly altered compounds putatively of superclass Organic acids and derivatives [1]: 1
significantly altered compounds putatively of superclass Organic nitrogen compounds [1]: 1
significantly altered compounds putatively of superclass Organic oxygen compounds [1]: 9
significantly altered compounds putatively of superclass Organoheterocyclic compounds [1]: 10
significantly altered compounds putatively of superclass Phenylpropanoids and polyketides [1]: 14
non-volatile compounds significantly (p<0.05) altered by one or more treatment groups (7.5 mM foliar spray, of the 2,000+ compounds detected via UPLC-TOF): 597
analytes with significantly altered relative abundance compared to the control group (Treatment 1: 7.5 mM, one application every 7 days from first day of flowering): 551
analytes with significantly altered relative abundance compared to the control group (Treatment 2: 7.5 mM, one application every 14 days from first day of flowering): 497
analytes with significantly altered relative abundance compared to the control group (Treatment 3: 7.5 mM, one application every 28 days from first day of flowering): 41
analytes with significantly altered relative abundance compared to the control group (Treatment 4: 7.5 mM, only one application on the first day of flowering): did not significantly altered the relative abundance of any analytes
analytes with significantly altered relative abundance compared to the control group (Treatment 5: 7.5 mM, only one application on the 30th day of flowering): 4
analytes with significantly altered relative abundance compared to the control group (Treatment 6: 7.5 mM, only one application 72 hours prior to harvest): 399
analytes with significantly altered relative abundance compared to the control group (Treatment 7: 7.5 mM, only one application 24 hours prior to harvest): 216
